According to patent US20260325542A1, “CANCER TARGETING COMPLEX, AND COMPOSITION COMPRISING SAME FOR PREVENTING OR TREATING CANCER” (EWHA UNIVERSITY - INDUSTRY COLLABORATION FOUNDATION, priority 2023, published 2026):
“Also recorded” adds a separate entry of the source.

What was measured:
BRD4 = target: T1, BRD4 (Mus musculus, UniProt Q9ESU6); experiment: Western blot, BRD4 degradation in 4T1 cells; format: cell-based; conditions: 24 hours
T1 construct: Western blot after PROTAC (ARV-771 release, VHL recruiting)
Experimental: (§1) Accordingly, Western blot analysis was performed to confirm the anticancer ability by evaluating the presence or absence of degradation of BRD4 and other related proteins (e.g., c-Myc and Bcl-2) when cancer cells were treated with the complex for cancer targeting (ECMal-PROTAC) of example 1. The complex for cancer targeting (ECMal-PROTAC) of example 1 and ARV-771 were prepared as samples.
(§2) First, 1×10^5 4T1 cells were dispensed into each well of a 6-well culture plate and cultured for 24 hours at 37° C. and 5% carbon dioxide atmosphere. The cell culture medium was supplemented with various concentrations of ARV-771 (0 to 10 μM) or the complex for cancer targeting (ECMal-PROTAC) of example 1 (0 to 10 μM), and cultured at 37° C. for 24 hours. After the culture was completed, the cells were washed 3 times with PBS, and lysed with a lysis buffer containing 1% […]. Cell debris from the recovered lysate was removed by centrifugation at 12,000 rpm for 25 minutes. After recovering the supernatant, the protein amount was measured using a BCA kit. The supernatant was loaded onto a 10% sodium dodecyl sulfate-polyacrylamide gel. Electrophoresis (SDS-PAGE) was performed, followed by blotting onto a polyvinylidene difluoride (PVDF) membrane. After blotting, the PVDF membrane was treated with 5% BSA-containing tris buffered saline containing 0.1% Tween 20 (TBS-T) for 2 hours to suppress the non-specific binding of IgG (immunoglobulin G). It was immediately exposed to a rabbit anti-mouse primary antibody (1,000:1). After treating at 4° C. for 24 hours, the PVDF membrane was washed 3 times with TBS-T and further incubated with an HRP-conjugated mouse anti-rabbit IgG antibody at room temperature for 1 hour. The immunoreactive bands on the PVDF membrane were analyzed through an ECL (enhanced chemiluminescence) system.

c-Myc = experiment: Western blot, c-Myc level in 4T1 cells; format: cell-based, mouse; conditions: 0 to 10 μM, 24 hours
Experimental: as §1
as §2, with “After blotting, the PVDF membrane was treated with 5% BSA-containing tris buffered saline containing 0.1% Tween 20 (TBS-T) for 2 hours to suppress the non-specific binding of IgG (immunoglobulin G). It was immediately exposed to a rabbit anti-mouse primary antibody (1,000:1). After treating at 4° C. for 24 hours, the PVDF membrane was washed 3 times with TBS-T and further incubated with an HRP-conjugated mouse anti-rabbit IgG antibody at room temperature for 1 hour.” left out

[1] = test system: major organs and cancer tissue; experiment: Ex vivo biodistribution in major organs and cancer tissue; design: species or system mouse; conditions: 24 hours after i.v. 3 mg/kg
Experimental: 5-week-old female Balb/c and Balb/c nu/nu mice were purchased from NaraBio, Inc (Seoul, Republic of Korea). The mice underwent a 2-week acclimatization period before the example. The mice were raised under free-feeding conditions in a breeding room maintained at a temperature of 22±2° C. and humidity of 40-60% during the example. The light and dark cycle was regulated at 12-hour intervals. All examples were conducted in compliance with the relevant laws and institutional guidelines of the KIST Institutional Animal Care and Use Committee (IACUC; Approval No.: 2021-143).
Cancer animal models were prepared by inoculating 1×10^6 4T1 cells into the left thigh of the mice, and raising them until the tumor volume reached 150-200 mm3.
Samples were prepared as follows to analyze the in vivo therapeutic effect of the complex for cancer targeting (ECMal-PROTAC) of example 1. A Cy5.5-BSA solution (Cy5.5-Alb, Preparation Example 1, 200 μM) diluted with PBS was co-incubated by mixing it with an ECMal-PROTAC aqueous solution (140 μM) of example 1 at a 1:1 volume ratio. […]
To analyze the sample distribution in the excised cancer tissue, the excised major organs and cancer tissue were imaged with the IVIS Lumina Series III system (PerkinElmer, Waltham, MA, USA) and analyzed with Living Image software (PerkinElmer).

Bcl-2 [2] = experiment: Western blot, Bcl-2 level in 4T1 cells; format: cell-based, mouse; conditions: 0 to 10 μM, 24 hours
Experimental: as §1
as §2, with “After blotting, the PVDF membrane was treated with 5% BSA-containing tris buffered saline containing 0.1% Tween 20 (TBS-T) for 2 hours to suppress the non-specific binding of IgG (immunoglobulin G). It was immediately exposed to a rabbit anti-mouse primary antibody (1,000:1). After treating at 4° C. for 24 hours, the PVDF membrane was washed 3 times with TBS-T and further incubated with an HRP-conjugated mouse anti-rabbit IgG antibody at room temperature for 1 hour.” left out

Bcl-2 [3] = experiment: Western blot of excised cancer tissue, Bcl-2; format: in vivo, mouse
Experimental: The control group was administered saline (10 mg/kg) once every 3 days for 15 days through the tail vein (total 4 administrations). The comparison group was administered ARV-771 (10 mg/kg) once every 3 days for 15 days through the tail vein (total 4 administrations). The example group was administered ECMal-PROTAC 10 mg/kg (wquiv. to ARV-771) of example 1 once every 3 days for 15 days through the tail vein (total 4 administrations).

[4] = Particle size by DLS before and after binding to albumin; format: physicochemical; conditions: before and after binding to BSA
Experimental: A BSA solution (200 μM) diluted with PBS was co-incubated by mixing it with an ECMal-PROTAC aqueous solution (140 μM) of example 1 at a 1:1 volume ratio.

thiol-blocked BSA = thiol-blocked BSA (Bos taurus, UniProt P02769); experiment: Selective binding: thiol-blocked BSA, RP-HPLC; design: species or system bovine; conditions: thiol-blocked BSA 200 μM, ECMal-PROTAC 140 μM, up to 60 minutes
Experimental: To confirm whether the binding of ECMal-PROTAC of example 1 and albumin is specific, thiol-blocked BSA was used. Specifically, thiol-blocked BSA was prepared by mixing 4-maleimidobutyric acid and BSA with a cyc34 blocking agent. The thiol-blocked BSA was diluted with PBS to prepare a solution (200 μM). This was co-incubated by mixing it with the ECMal-PROTAC aqueous solution (140 μM) of example 1 at a 1:1 volume ratio. The culture was collected at incubation times of 0 minutes, 5 minutes, 30 minutes, and 60 minutes. It was quenched with mercaptoethanol, and HPLC spectra for each sample were acquired through concentration gradient of the eluent (ACN/H2O, 20/80 to 80/20 (v/v), 30 minutes).
From the HPLC results for the BSA and complex for cancer targeting (ECMal-PROTAC) mixture in Experimental Example 1 and the thiol-blocked BSA and complex for cancer targeting (ECMal-PROTAC) mixture in Experimental Example 2, the reduction in the HPLC peak area associated with the complex for cancer targeting (ECMal-PROTAC) was quantified.

thiol-blocked BSA, sequence (P02769 25-607): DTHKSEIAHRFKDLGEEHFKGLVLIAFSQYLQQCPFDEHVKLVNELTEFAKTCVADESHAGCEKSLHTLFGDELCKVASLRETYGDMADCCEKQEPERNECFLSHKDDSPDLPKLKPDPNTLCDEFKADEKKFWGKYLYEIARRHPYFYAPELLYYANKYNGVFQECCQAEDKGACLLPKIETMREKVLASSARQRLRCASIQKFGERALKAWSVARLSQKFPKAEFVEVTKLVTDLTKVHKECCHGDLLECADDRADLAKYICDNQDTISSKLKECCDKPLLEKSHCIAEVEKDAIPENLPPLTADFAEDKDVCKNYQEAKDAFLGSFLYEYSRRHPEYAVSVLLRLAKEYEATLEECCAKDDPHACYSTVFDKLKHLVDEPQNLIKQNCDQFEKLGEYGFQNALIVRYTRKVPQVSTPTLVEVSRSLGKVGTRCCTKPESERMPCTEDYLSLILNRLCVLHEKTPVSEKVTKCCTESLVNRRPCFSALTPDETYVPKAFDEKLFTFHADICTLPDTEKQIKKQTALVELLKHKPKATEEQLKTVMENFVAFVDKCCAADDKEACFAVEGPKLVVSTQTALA

SMILES: Cc1ncsc1-c1ccc([C@H](C)NC(=O)[C@@H]2C[C@@H](OC(=O)CCCCn3nnc4c3CCC3C(CC4)C3COC(=O)NCCOCCOCCNC(=O)CCN3C(=O)C=CC3=O)CN2C(=O)[C@@H](NC(=O)COCCCOCCNC(=O)C[C@@H]2N=C(c3ccc(Cl)cc3)c3c(sc(C)c3C)-n3c(C)nnc32)C(C)(C)C)cc1 (stereo partly shown) [ECMal-PROTAC]
- degradation of overexpressed BRD4 protein (BRD4; 0 to 10 μM): degrades the overexpressed BRD4 protein in a concentration-dependent manner; also recorded: induce BRD4 deficiency
- DC50 (BRD4; Western blot, read-out: DC50 (half-maximal degradation concentration), BRD4): 1810 nM
- c-Myc level (c-Myc): reduces the levels; also recorded: reduced expression
- elimination through the kidneys [1]: very low probability of kidney excretion
- Bcl-2 level (Bcl-2 [2]): reduces the levels; also recorded: reduced expression
- Bcl-2 level in cancer tissue vs control (Bcl-2 [3]; Western blot, 10 mg/kg): much lower levels
- Bcl-2 level in cancer tissue, example group vs comparison group (Bcl-2 [3]; Western blot, vs ARV-771 group (so in the source)): no significant difference
- relative expression level of Bcl-2, fold lower than control group (Bcl-2 [3]; cancer tissue, FIG. 32): 2.3 times
- change in particle size on binding to albumin [4]: no significant change in particle size
- interaction with thiol-blocked BSA (thiol-blocked BSA): did not form an interaction
